US20150045387A1, “Bi-Aromatic And Tri-Aromatic Compounds As NADPH Oxidase 2 (Nox2) Inhibitors” (The University of Surrey, priority 2011, published 2015)

Key:
[1] = tested on: human liver hepatocyte cells (HepG2 cells); assay: MTT assay for cytotoxicity, HepG2; type: cell-based; details: HepG2, LMH001 5 and 10 μM, 24 h
Procedure: (§1) FIG. 8 is a graph showing no cytotoxicity of LMH001 on living mouse microvascular endothelial cells (SVEC4-10 cells) and human liver hepatocyte cells (HepG2 cells), assessed by means of an MTT assay. Cells were cultured with LMH001 (5 and 10 μM) for 24 h. MTT is a yellow tetrazolium reagent which can be converted by living cells to insoluble blue formazan crystal in the medium. The insoluble blue formazan crystals were then dissolved in DMSO and measured for absorbance at 570 nm by a plate reader. Higher absorbance corresponds to more living cells. Results are presented as mean±SD (n=3).
(§2) HepG2 is a human hepatocytic cell line (ATCC No. HB-8065) that was originally derived from liver tissue with a well differentiated hepatocellular carcinoma. HepG2 cells have been proven to be a suitable in vitro model system for the study of human hepatocytes, and the study of liver metabolism and toxicity. HepG2 cells were grown in DMEM, containing 10% (v/v) heat inactivated foetal calf serum, 100 U/mL penicillin and […] streptomycin, in a humidified atmosphere at 37° C. with 5% CO2.
(§3) The potential cytotoxicity of LMH001 on cultured endothelial cells (SVEC4-10) and liver cells (HepG2) was assessed using the MIT assay as described previously (16). […] Absorbance was measured at 570 nm in an ELISA plate reader and the mean of 3 blank readings was subtracted from each corrected value.

[2] = tested on: HepG2 cells; assay: normal cell proliferation, MTS assay, HepG2; type: cell-based, human; details: HepG2, LMH001 up to 10 μM, 24 h
Procedure: A) SVEC4-10 cells and HepG2 cells were cultured in the presence or absence of LHM001 (0-10 μM) for 24 h and tested for cell proliferation using a MTS assay kit. B) HL-60 cells were cultured in the presence or absence of LMH001 (0-10 μM), and cell proliferation was examined at 6, 12 and 24 h of culture.
as §2
The ex vivo proliferative capabilities of isolated BMSC or cultured cells were analyzed using the MTS proliferation assay. […] After 24 hours in culture medium containing LMH001 (0-10 μM), proliferation was assessed using the MTS (CellTiter 96 AQ; Promega, Madison, USA) assay according to the manufacturer's protocol. The absorbance at 490 nm was read using an ELISA plate reader (Perkin elmer), and the proliferation index calculated relative to the controls. The mean of 3 blank readings was subtracted from each corrected value.

[3] = tested on: human liver hepatocyte cells (HepG2); assay: cell viability by trypan blue exclusion and viable cell number counting, HepG2; type: cell-based; details: HepG2, LMH001 5 and 10 μM, 24 h, trypan blue exclusion
Procedure: FIG. 7 is a graph showing no cytotoxicity of LMH001 on living mouse microvascular endothelial cells (SVEC4-10) and human liver hepatocyte cells (HepG2), assessed by trypan blue exclusion and viable cell number counting. Cells were cultured with LMH001 (5 and 10 μM) for 24 h. Cell viabilities of SVEC4-10 cells and HepG2 cells in the presence of LMH001 (5 and 10 μM) were expressed as % of alive cells compared to cells in the absence of LMH001 (control, 100%). Results are presented as mean±SD (n=3).
HepG2 is a human hepatocytic cell line (ATCC No. HB-8065) that was originally derived from liver tissue with a well differentiated hepatocellular carcinoma. HepG2 cells have been proven to be a suitable in vitro model system for the study of human hepatocytes, and the study of liver metabolism and toxicity. […]
Cell viability and membrane integrity in the presence and absence of LMH001 were assessed using the trypan blue exclusion assay as described previously (15). […] At the time of experiment, cells were harvested by 0.25% Trypsin/EDTA, pelleted, resuspended in serum free medium and counted using a haemocytometer in the presence of trypan blue (0.4%) solution. The number of viable cells was calculated as a percentage of total cells.

[4] = tested on: mouse microvascular endothelial cells (SVEC4-10 cells); assay: MTT assay for cytotoxicity, SVEC4-10; type: cell-based; details: SVEC4-10, LMH001 5 and 10 μM, 24 h
Procedure: as §1
The mouse lymph node microvascular endothelial cell line (SVEC4-10) was from the American Type Culture Collection (CRL-2167) and grown in DMEM, containing 10% (v/v) heat inactivated foetal calf serum, 100 U/mL penicillin and […] streptomycin, in a humidified atmosphere at 37° C. with 5% CO2.
as §3

## O=C(OCc1cccc(O)c1O)c1ccc(O)c(CO)c1 [LMH001, (2,3,-dihydroxyphenyl)methyl 4-hydroxy-3-(hydroxymethyl)benzoate]
[1]
  cytotoxicity, MTT absorbance at 570 nm: no significant difference
[2]
  normal cell proliferation under physiological condition: no significant effect
[3]
  cell viability (% of alive cells vs control): no significant difference
[4]
  cytotoxicity, MTT absorbance at 570 nm: no significant difference
